# In publication PMC10823514, “Target Identification of a Class of Pyrazolone Protein Aggregation Inhibitor Therapeutics for Amyotrophic Lateral Sclerosis” (ACS Central Science, 2023):
# Columns and labels:
# 14-3-3-G = target: T1, 14-3-3-G (Homo sapiens, UniProt P61981); experiment: Fluorescent thermal shift assay (FTSA) with 14-3-3-G; assay type: binding; details: 0 and 100 μM P2
# T1 construct: purchased Abchem (so in the source)
# T1 sequence (P61981 1-247): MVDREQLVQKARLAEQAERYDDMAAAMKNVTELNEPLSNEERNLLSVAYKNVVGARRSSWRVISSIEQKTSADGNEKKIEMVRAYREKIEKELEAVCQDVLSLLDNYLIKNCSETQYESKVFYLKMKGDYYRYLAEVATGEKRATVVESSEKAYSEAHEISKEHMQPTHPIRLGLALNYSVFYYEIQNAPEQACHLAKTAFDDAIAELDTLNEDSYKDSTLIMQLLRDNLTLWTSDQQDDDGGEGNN
# Method: (§1) His-tagged 14-3-3-E, B, and H plasmids were purchased from Addgene (plasmid ID# 31562, 39128, and 38814, respectively). E. coli (BL21) were transformed with extracted plasmids via heat shock and plated on selected media. Individual colonies were selected, grown, and sequenced to confirm gene presence. 1 L cultures were grown to an OD600 of 0.6 at 37 °C and 220 rpm. Protein expression was induced with 1 mM IPTG and expressed for 12 h at 100 rpm and room temperature (approximately 25 °C). Cells were spun down at 4000 rpm for 15 min at 4 °C and resuspended in lysis buffer containing 50 mM Tris (7.4), 150 mM NaCl, 0.08% DDM, 5 mM imidazole, and 5% glycerol (with an EDTA-free complete mini protease inhibitor cocktail). Cells were lysed via sonication, and the lysate was separated from cell debris by centrifugation at 15,000 rpm, 4 °C, for 45 min. The His-tagged protein was purified using QIAGEN Ni-NTA superflow columns, and the His-tag was removed with TEV protease. His-tag-removed proteins were further purified by size exclusion chromatography. His tag removal and size exclusion chromatography purification were done at the Northwestern University Protein Production core. […]
# (§2) All of the FTSA experiments were conducted in HEPES buffer (60 mM HEPES, 150 mM NaCl, pH 7.4). […] The fluorescence was measured on a Bio-Rad CFX384 real-time PCR instrument.
# 14-3-3-H = target: T2, 14-3-3-H (Homo sapiens, UniProt Q04917); experiment: Fluorescent thermal shift assay (FTSA) with 14-3-3-H; assay type: binding
# T2 construct: His-tag (TEV-cleavable) (cleaved yes); host or cells: E. coli (BL21)
# T2 sequence (Q04917 1-246): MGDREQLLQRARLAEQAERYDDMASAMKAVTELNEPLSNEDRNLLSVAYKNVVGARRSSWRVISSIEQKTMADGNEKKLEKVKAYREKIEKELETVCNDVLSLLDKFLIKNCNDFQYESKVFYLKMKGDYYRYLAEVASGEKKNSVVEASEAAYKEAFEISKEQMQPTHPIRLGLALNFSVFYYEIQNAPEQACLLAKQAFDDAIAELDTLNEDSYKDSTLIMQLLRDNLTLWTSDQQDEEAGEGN
# Method: as §1, §2
# PC12 SOD1^G93A cells = details: neuroprotection against MG-132-induced SOD1^G93A toxicity in PC12 cells; leads of the authors' earlier work; read-out: EC50 (NP = neuroprotection); cited from earlier work
smiles,measurement,setting,value
O=c1cc(COc2cc(Cl)cc(Cl)c2)[nH][nH]1 [P2],binding (Tm shift),14-3-3-G,no binding
same,binding (Tm shift),14-3-3-H,no binding
same,EC50,PC12 SOD1^G93A cells,67 nM
